# System: female NMRI mice
# Test: Anorectic effect: cumulative condensed milk consumption in fasted mice
# Type: in vivo
# Details: oral dose 30 mg/kg by gavage after withdrawal of feed for 17 hours, condensed milk offered 30 minutes after administration, consumption determined for 7 hours, compared with vehicle-treated control animals
# Procedure: The anorectic effect was tested on female NMRI mice. After withdrawal of feed for 17 hours, the test product was administered by gavage. The animals were housed singly with free access to drinking water and were offered condensed milk 30 minutes after administration of the product. The condensed milk consumption was determined every half hour for 7 hours, and the general wellbeing of the animals was observed. The measured milk consumption was compared with the vehicle-treated control animals.
row,Compound,Reduction in cumulative milk consumption as % of the control [%]
1,"CCCCOc1ccc(C(=O)Nc2ccc(OC[C@@H]3CCCN4CCCC[C@H]34)cc2)cc1 [Example 2, 4-Butoxy-N-{4-[(1R,9aR)-1-(octahydroquinolizin-1-yl)methoxy]phenyl}-benzamide]",73
2,O=C(Nc1ccc(OC[C@@H]2CCCN3CCCC[C@H]23)cc1)N1CCC(c2ccc(Cl)cc2)CC1 [Example 37],24

# — US8357686B2, “Aryl-substituted polycyclic amines, method for the production thereof, and use thereof as a medicament” (Sanofi-Aventis Deutschland GmbH, priority 2004, dated 2013)
